# Literature values, collected in patent US20230345944A1, “Purified and Enhanced Hydrogen Peroxide Disinfecting Solution for the Rapid Inactivation of COVID-19 and Other Pathogens” (Alira Health Boston LLC, priority 2021, published 2023).
# Test system: bacteria
# Conditions: hydrogen peroxide on its own
compound,measurement,value
OO [hydrogen peroxide],minimal inhibitory concentration (MIC),about 1 mM
